{"source": "patent US12583892B2", "about": "(priority 2020, dated 2026)", "system": "NMDAR-dependent EPSCs", "type": "cell-based, rat", "data": [{"smiles": "CC(C(O)c1ccc(O)cc1)N1CCC(Cc2ccccc2)CC1", "note": "(stereo not shown) [ifenprodil]", "values": [{"measurement": "NMDARs-dependent EPSCs, young neurons", "result": "inhibition"}]}]}
